Measured values from US7763626B2, “Compositions and method for enhancing the therapeutic activity of opiods in treatment of pain” (Trustees of Dartmouth College, priority 2004, dated 2010).

Columns and labels:
Format in all cases: in vivo, rat
[1] = tested on: GLAST; assay: Immunohistochemical assessment of glutamate transporters in spinal cord; details: day 12 after L5 spinal nerve transection; propentofylline 10 μg i.t. daily
Description: (§1) Experiments were performed to determine how propentofylline-induced suppression of glial activation contribute to reduced behavioral hypersensitivity after nerve injury. In a preventative paradigm, 10 μg of propentofylline (Sigma) to male Sprague-Dawley rats in 40 μl of sterile saline, or saline vehicle alone was administered intrathecally (i.t.) by lumbar puncture at the L4/5 level under brief halothane anesthesia (n=6-8/group). Treatment began one hour prior to L5 spinal nerve transection and continued daily in the evening until day 4 or 12 post-transection. Rats received either an L5 spinal nerve transection or sham surgery on day 0. The development of mechanical allodynia was monitored as described above in the morning at approximately 15 hours post-propentofylline or saline injection. […]
(§2) For assessment of GFAP, GLT-1 and GLAST immunoreactivity, a separate group of animals (n=4/treatment) were anesthetized and transcardially perfused with 0.1 M PBS (phosphate-buffered saline), pH 7.4, followed by 4% paraformaldehyde in PBS on day 12 post-L5 spinal nerve transection. […] The sections were examined with an Olympus fluorescence microscope, and images were captured with a Q-Fire cooled camera. […]

[2] = tested on: GLT-1; assay: as above; details: twelve days after L5 spinal nerve transection; propentofylline 10 μg i.t. daily
Description: as §1, §2

[3] = tested on: IL-6 mRNA; assay: RNase protection assay, cytokine mRNA at L5 lumbar spinal cord; details: propentofylline 10 micrograms intrathecally for 5 days during induction of morphine tolerance
Description: After behavioral testing for reactions to the combined treatment, rats were sacrificed and decapitated. An 18-gauge needle was inserted into the caudal end of the vertebral column and the spinal cord was expelled with ice-cold phosphate-buffered saline. The spinal cord was frozen immediately on dry ice and stored at −80° C. until homogenization. The L5 lumbar spinal cord was isolated from the intact frozen cord at the time of mRNA and protein quantification. Total RNA was isolated from the L5 spinal cord by the TRIzol extraction method (Invitrogen Corporation, Carlsbad, Calif).
Assessment of the temporal cytokine mRNA expression in the L5 lumber spinal cord was performed using a Ribonuclease Protection Assay technique. A Multiprobe RPAse kit was used (Pharmingen, San Diego, Calif.). Total RNA (15 μg) was hybridized to ^32P-labeled antisense RNA probes transcribed using the rat cytokine-1 (rCK-1) multiprobe template set resulting in double-stranded target RNA. After Rnase digestion, protected RNA and probe were resolved on a denaturing polyacrylamide gel and visualized by overnight autoradiography. Quantitative image analysis was employed to compare mRNA levels based on band intensities for each cytokine. The intensity of each band was measured using image analysis software and assigned an arbitrary unit based on the measured intensity levels. The value for the normalized quantity for each band was obtained by dividing by the L32 house-keeping gene control. Individual mRNA concentration was calculated as the ratio of the expression compared with saline-treated animals in which normal values were weighted as 1.

[4] = tested on: Male Sprague-Dawley rats; assay: Morphine tolerance model, acute intrathecal morphine evaluated by thermal and mechanical test paradigms
Description: (§3) Male Sprague-Dawley rats (175-200 grams, Harlan, Indianapolis, Ind.) were divided into two groups (n=8 per group). Rats received subcutaneous injections of either saline or morphine (10 mg/kg; Sigma, St. Louis, Mo.) twice daily at 0800 to 0900 and 1600-1700 hour for 5 days in order to induce opioid tolerance. Chronic morphine withdrawal-induced hyperalgesia and allodynia were assessed in the animals 16 hours after the last injection of morphine. Following the recording of morphine withdrawal-induced hyperalgesia and allodynia, animals were treated with morphine (5 microgram) acutely via lumbar intrathecal injection to study the expression of morphine tolerance. Acute analgesic activity or intrathecal morphine in morphine-tolerant and chronic aline-treated rats were evaluated by mechanical (Analgesy-Meter) and thermal (tail-flick) test paradigms. Behaviors recorded prior to the acute administration of intrathecal morphine served as the basal latency measures.
With an understanding of the effects of morphine alone, separate groups of rats (n=8) received with saline or morphine (10 mg/kg subcutaneously, twice daily for 5 days) and also received once daily injections (at 1100 to 1200 hour) of propentofylline (1 and 10 micrograms) or saline via direct lumbar puncture during the induction of morphine tolerance. Again, chronic morphine withdrawal-induced hyperalgesia and allodynia were assessed in the animals 16 hours after the last subcutaneous morphine injection. […] As before, the acute analgesic activity of intrathecal morphine in morphine-tolerant and saline-injected rats was evaluated by mechanical (Analgesy-Meter) and thermal (tail-flick) test paradigms. Behavior recorded prior to the acute administration of intrathecal morphine served as the basal latency.
(§4) In blinded testing, rats were subjected to sequential series of 10 tactile stimulations to the dorsal surface of the ipsilateral hindpaw using […] von Frey filaments (Stoelting Co., WoodDale, Ill.) sequentially. The number of foot withdrawals to this normally non-noxious stimulus determined mechanical allodynia. Mechanical sensitivity was assessed by recording the total number of responses elicited during three successive trials separated by at least 10 minutes. The pressure required to elicit paw withdrawal, the paw pressure threshold was determined.
Thermal nociceptive thresholds were evaluated by the hot water tail-flick test that has been described previously (Bian, D. et al. 1999. Brain Res. 831:55-63). […] Again, the total number of responses elicited during three successive trials separated by at least 10 minutes was recorded and then expressed as the % maximal possible effect. […]

[5] = tested on: Male Sprague-Dawley rats; assay: Hot water tail-flick test, morphine withdrawal-induced thermal hyperalgesia
Description: as §3
(§5) With an understanding of the effects of morphine alone, separate groups of rats (n=8) received with saline or morphine (10 mg/kg subcutaneously, twice daily for 5 days) and also received once daily injections (at 1100 to 1200 hour) of propentofylline (1 and 10 micrograms) or saline via direct lumbar puncture during the induction of morphine tolerance. Again, chronic morphine withdrawal-induced hyperalgesia and allodynia were assessed in the animals 16 hours after the last subcutaneous morphine injection. Following the recording of morphine withdrawal-induced hyperalgesia and allodynia, animals were treated with morphine (5 micrograms) acutely via lumbar puncture to study the expression of morphine tolerance. As before, the acute analgesic activity of intrathecal morphine in morphine-tolerant and saline-injected rats was evaluated by mechanical (Analgesy-Meter) and thermal (tail-flick) test paradigms. Behavior recorded prior to the acute administration of intrathecal morphine served as the basal latency.
Thermal nociceptive thresholds were evaluated by the hot water tail-flick test that has been described previously (Bian, D. et al. 1999. Brain Res. 831:55-63). The test consisted of immersing the tail of the rats in water maintained at 49° C. and then recording the latency to a rapid flick. A 15 second cut-off time was used. Again, the total number of responses elicited during three successive trials separated by at least 10 minutes was recorded and then expressed as the % maximal possible effect. The tester was again blinded to the test groups.

[6] = tested on: Male Sprague-Dawley rats; assay: Paw pressure test (Analgesy-Meter), morphine withdrawal-induced mechanical hyperalgesia
Description: as §3, §5, §4

[7] = propentofylline 10 micrograms intrathecally for 5 days
[8] = 16 hours after last injection, morphine 10 mg/kg s.c. twice daily 5 days and/or propentofylline 10 micrograms intrathecally once daily 5 days
[9] = 16 hours after last morphine injection (10 mg/kg s.c. twice daily 5 days), propentofylline 1 and 10 micrograms intrathecally for 5 days during induction of tolerance

Compound: CCCn1cnc2c1c(=O)n(CCCCC(C)=O)c(=O)n2C [propentofylline]
- GLAST immunoreactivity on the ipsilateral side [1]: did not enhance
- GLT-1 immunoreactivity, ipsilateral versus contralateral dorsal horns [2]: no qualitative difference
- morphine-induced mRNA upregulation for IL-6 [3]: significantly attenuated
- expression of spinal nociceptive tolerance to intrathecal morphine (5 micrograms) ([4]; propentofylline 1 and 10 micrograms intrathecally for 5 days during induction of morphine tolerance, thermal and mechanical test paradigms): significantly attenuated
- anti-nociceptive activity of acute intrathecal morphine (5 micrograms) in chronic saline-treated rats [4, 7]: no effect
- nociceptive threshold in saline-treated rats [4, 7]: no effect
- Tail-flick latency [5, 8]: 5.1 ± 0.3 s
- morphine withdrawal-induced noxious thermal hyperalgesia [5, 9]: significantly attenuated
- Paw pressure latency [6, 8]: 119.4 ± 5.4 grams
- morphine withdrawal-induced mechanical hyperalgesia [6, 9]: significantly attenuated
